# Reference: patent US12398154B2, “Azaquinazoline pan-KRas inhibitors” (Mirati Therapeutics, Inc., priority 2020, dated 2025)
# Key:
# [1] = tested on: phospho-ERK in AsPC-1 (G12D) cells; experiment: Inhibition of KRas-mediated phosphorylation of ERK (in-cell western); assay type: cell-based; settings: Homo sapiens, ASPC1, 3 h, 3 hours compound, phospho-ERK normalized to GAPDH
# How it was run: (§1)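 Fixed-cell immunodetection of ERK phosphorylation following 3 h compound treatment (0.5% DMSO). IC50 derived by 4-parameter fit of GAPDH-normalized signal versus DMSO control.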
# [2] = tested on: phospho-ERK in MKN1 (WTdep) cells; experiment: as above; assay type: cell-based; settings: Homo sapiens, MKN-1, 3 hours compound, phospho-ERK normalized to GAPDH
# How it was run: as §1
# [3] = tested on: phospho-ERK in NCI-H460 (Q61H) cells; experiment: as above; assay type: cell-based; settings: Homo sapiens, NCI-H460, 3 h, 3 hours compound, phospho-ERK normalized to GAPDH
# How it was run: as §1
# [4] = tested on: phospho-ERK in NCI-H727 (G12V) cells; experiment: as above; assay type: cell-based; settings: Homo sapiens, NCI-H727, 3 h, 3 hours compound, phospho-ERK normalized to GAPDH
# How it was run: as §1
# KRas G12D = KRas G12D (Homo sapiens, UniProt P01116, G12D); experiment: biochemical;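 further: TR-FRET displacement binding assay on KRas, read after a one-hour incubation at room temperature, IC50 fitted from percent-of-control values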
# Experimental: (§2) The ability of a compound to bind to KRas was measured using a TR-FRET displacement assay. […] After a 60-minute incubation at room temperature, the reaction was measured using a BMG LABTECH CLARIO star Plus via TR-FRET. […] The POC values were fit to a 4-parameter IC50 equation and the IC50 value reported.
# KRas G12V = KRas G12V (Homo sapiens, UniProt P01116, G12V); experiment: biochemical;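 further: KRas binding measured by TR-FRET displacement at room temperature, IC50 fitted from percent of control values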
# Experimental: as §2
# KRas G12R = KRas G12R (Homo sapiens, UniProt P01116, G12R); experiment: biochemical;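 further: TR-FRET displacement assay of compound binding to KRas, read after one hour at room temperature, potency from a four-parameter fit of percent-of-control values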
# Experimental: as §2
# pERK in MKN1 cells = experiment: Inhibition of KRas phosphorylation of ERK (Cisbio HTRF pERK assay); settings: Homo sapiens, MKN-1, 3 h, read-out: Inhibition (HTRF IC50) of KRas-mediated Phosphorylation of ERK, MKN1
# pERK in PSN1 cells = experiment: as above; settings: Homo sapiens, PSN1, 3 h, read-out: Inhibition (HTRF IC50) of KRas-mediated Phosphorylation of ERK, PSN1
# pERK in ASPC1 cells = experiment: as above; settings: Homo sapiens, ASPC1, read-out: Inhibition (HTRF IC50) of KRas-mediated Phosphorylation of ERK, AsPC-1
# pERK in H727 cells = experiment: as above; settings: Homo sapiens, NCI-H727, read-out: Inhibition (HTRF IC50) of KRas-mediated Phosphorylation of ERK, H727
# pERK in A549 cells = experiment: as above; settings: Homo sapiens, A549, read-out: Inhibition (HTRF IC50) of KRas-mediated Phosphorylation of ERK, A549
# pERK in H460 cells = experiment: as above; settings: Homo sapiens, NCI-H460, read-out: Inhibition (HTRF IC50) of KRas-mediated Phosphorylation of ERK, H460
# pERK in HCT116 cells = experiment: as above; settings: Homo sapiens, HCT-116, read-out: Inhibition (HTRF IC50) of KRas-mediated Phosphorylation of ERK, HCT116
# pERK in H358 cells = experiment: as above; settings: Homo sapiens, NCI-H358, read-out: Inhibition (HTRF IC50) of KRas-mediated Phosphorylation of ERK, H358
# KRas G12A = KRas G12A (Homo sapiens, UniProt P01116, G12A); experiment: biochemical;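 further: binding to KRas measured by TR-FRET displacement after one hour at room temperature, IC50 from a four-parameter fit of percent-of-control values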
# Experimental: as §2
# KRas G12S = KRas G12S (Homo sapiens, UniProt P01116, G12S); experiment: biochemical;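 further: TR-FRET displacement binding to KRas, read after one hour incubation at room temperature, IC50 from four-parameter fit of percent of control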
# Experimental: as §2
# KRas G12C = KRas G12C (Homo sapiens, UniProt P01116, G12C); experiment: biochemical;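 further: binding to KRas assessed by TR-FRET displacement after one hour incubation at room temperature, potency fitted from percent-of-control values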
# Experimental: as §2
# KRas WT = KRas WT (Homo sapiens, UniProt P01116); experiment: biochemical;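 further: binding to KRas read as TR-FRET displacement after a one-hour room-temperature incubation, IC50 derived from percent-of-control values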
# Chain of KRas WT (P01116 1-169 isoform P01116-2): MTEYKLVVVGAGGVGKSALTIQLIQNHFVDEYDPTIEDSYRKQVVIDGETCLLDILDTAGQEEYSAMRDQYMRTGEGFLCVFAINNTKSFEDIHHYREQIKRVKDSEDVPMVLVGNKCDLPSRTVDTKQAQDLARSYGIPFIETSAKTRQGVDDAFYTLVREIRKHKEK
# Experimental: as §2
# Chain of KRas G12R (P01116 1-169 isoform P01116-2 G12R): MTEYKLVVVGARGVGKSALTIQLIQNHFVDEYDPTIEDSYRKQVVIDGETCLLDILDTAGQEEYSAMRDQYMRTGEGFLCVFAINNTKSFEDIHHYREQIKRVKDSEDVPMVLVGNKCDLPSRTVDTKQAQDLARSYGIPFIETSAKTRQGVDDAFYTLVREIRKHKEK
# Chain of KRas G12V (P01116 1-169 isoform P01116-2 G12V): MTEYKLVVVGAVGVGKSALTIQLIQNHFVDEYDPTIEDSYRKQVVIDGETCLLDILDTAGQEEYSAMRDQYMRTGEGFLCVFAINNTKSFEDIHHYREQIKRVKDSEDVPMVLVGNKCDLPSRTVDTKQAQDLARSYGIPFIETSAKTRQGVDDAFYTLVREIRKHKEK
# Chain of KRas G12D (P01116 1-169 isoform P01116-2 G12D): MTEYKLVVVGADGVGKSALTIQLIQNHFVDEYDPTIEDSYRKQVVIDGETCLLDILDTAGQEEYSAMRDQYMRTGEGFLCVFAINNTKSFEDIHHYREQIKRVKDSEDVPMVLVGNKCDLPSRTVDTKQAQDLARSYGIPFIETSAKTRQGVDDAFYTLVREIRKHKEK
# Chain of KRas G12C (P01116 1-169 isoform P01116-2 G12C): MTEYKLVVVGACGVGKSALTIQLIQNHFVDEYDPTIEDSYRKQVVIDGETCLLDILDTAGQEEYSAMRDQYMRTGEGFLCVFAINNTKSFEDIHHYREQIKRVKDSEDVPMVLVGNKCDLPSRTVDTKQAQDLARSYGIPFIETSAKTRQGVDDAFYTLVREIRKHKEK
# Chain of KRas G12A (P01116 1-169 isoform P01116-2 G12A): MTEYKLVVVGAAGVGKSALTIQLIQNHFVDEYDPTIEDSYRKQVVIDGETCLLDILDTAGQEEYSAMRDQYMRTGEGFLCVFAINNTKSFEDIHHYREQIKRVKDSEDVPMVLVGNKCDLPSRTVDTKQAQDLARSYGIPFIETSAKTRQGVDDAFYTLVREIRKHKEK
# Chain of KRas G12S (P01116 1-169 isoform P01116-2 G12S): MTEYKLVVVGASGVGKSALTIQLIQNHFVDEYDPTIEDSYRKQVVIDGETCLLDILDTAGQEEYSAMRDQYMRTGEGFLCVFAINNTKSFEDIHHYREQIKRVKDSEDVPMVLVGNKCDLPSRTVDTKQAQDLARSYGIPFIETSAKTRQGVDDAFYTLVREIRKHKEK
SMILES,IC50 (KRas G12D),IC50 (KRas G12V),IC50 (KRas G12R),IC50 (pERK in MKN1 cells),IC50 (pERK in PSN1 cells),IC50 (pERK in ASPC1 cells),IC50 (pERK in H727 cells),IC50 (pERK in A549 cells),IC50 (pERK in H460 cells),IC50 (pERK in HCT116 cells),IC50 (pERK in H358 cells),IC50 (KRas G12A),IC50 (KRas G12S),IC50 (KRas G12C),IC50 (KRas WT),IC50 [1],IC50 [2],IC50 [3],IC50 [4]
CCc1c(F)ccc2cc(O)cc(-c3ncc4c(N5CC6C(=O)NC(=O)C6C5)nc(OC[C@@]56CCCN5C[C@H](F)C6)nc4c3F)c12 (stereo partly shown) [Example 197],≤ 2 nM,≤ 2 nM,≤ 2 nM,23 nM,≥ 10000 nM,57 nM,348 nM,–,183 nM,620 nM,112 nM,–,–,–,–,144 nM,11 nM,293 nM,841 nM
"C#Cc1c(F)ccc2cc(O)cc(-c3ncc4c(N5CCOC[C@@](C)(O)C5)nc(OC[C@@]56CCCN5C[C@H](F)C6)nc4c3F)c12 [Example 201, (S)-4-(7-(8-ethynyl-7-fluoro-3-hydroxynaphthalen-1-yl)-8-fluoro-2-(((2R,7aS)-2-fluorohexahydro-1H-pyrrolizin-7a-yl)methoxy)pyrido[4,3-d]pyrimidin-4-yl)-6-methyl-1,4-oxazepan-6-ol]",≤ 2 nM,≤ 2 nM,≤ 2 nM,15 nM,2390 nM,23 nM,42 nM,223 nM,118 nM,187 nM,12 nM,–,–,–,–,91 nM,2 nM,100 nM,110 nM
"CCc1c(F)ccc2cc(O)cc(-c3ncc4c(N5CCC[C@@]6(CNC(=O)N6)C5)nc(OC[C@@]56CCCN5C[C@H](F)C6)nc4c3F)c12 [Example 300, (R)-7-(7-(8-ethyl-7-fluoro-3-hydroxynaphthalen-1-yl)-8-fluoro-2-(((2R,7aS)-2-fluorohexahydro-1H-pyrrolizin-7a-yl)methoxy)pyrido[4,3-d]pyrimidin-4-yl)-1,3,7triazaspiro[4.5]decan-2-one]",≤ 2 nM,≤ 2 nM,≤ 2 nM,7 nM,1380 nM,38 nM,89 nM,–,–,–,14 nM,–,–,–,–,251 nM,37 nM,71 nM,372 nM
"CCc1c(F)ccc2cc(O)cc(-c3ncc4c(N5CCCCCC(S(C)(=O)=O)C5)nc(OC[C@@]56CCCN5C[C@H](F)C6)nc4c3F)c12 (stereo partly drawn) [Example 309, 5-ethyl-6-fluoro-4-(8-fluoro-2-(((2R,7aS)-2-fluorohexahydro-1H-pyrrolizin-7a-yl)methoxy)-4-(3-(methylsulfonyl)azocan-1-yl)pyrido[4,3-d]pyrimidin-7-yl)naphthalen-2-ol]",4 nM,≤ 2 nM,3 nM,2 nM,8330 nM,54 nM,37 nM,113 nM,57 nM,26 nM,26 nM,–,–,–,–,176 nM,–,59 nM,272 nM
"CCc1c(F)ccc2cc(O)cc(-c3ncc4c(N5CCCn6nc(C(=O)N(C)C)cc6C5)nc(OC[C@@]56CCCN5C[C@H](F)C6)nc4c3F)c12 [Example 326, 5-(7-(8-ethyl-7-fluoro-3-hydroxynaphthalen-1-yl)-8-fluoro-2-(((2R,7aS)-2-fluorohexahydro-1H-pyrrolizin-7a-yl)methoxy)pyrido[4,3-d]pyrimidin-4-yl)-N,N-dimethyl-5,6,7,8-tetrahydro-4H-pyrazolo[1,5-a][1,4]diazepine-2-carboxamide]",≤ 2 nM,≤ 2 nM,≤ 2 nM,8 nM,≥ 10000 nM,10 nM,26 nM,138 nM,253 nM,274 nM,18 nM,≤ 2 nM,≤ 2 nM,≤ 2 nM,≤ 2 nM,–,–,–,–
"C#Cc1c(F)ccc2cc(O)cc(-c3ncc4c(N5C[C@@H]6C[C@H](C5)[C@H](O)C6)nc(OC[C@@]56CCCN5C[C@H](F)C6)nc4c3F)c12 [Example 388, (1R,5R,6R)-3-(7-(8-ethynyl-7-fluoro-3-hydroxynaphthalen-1-yl)-8-fluoro-2-(((2R,7aS)-2-fluorohexahydro-1II-pyrrolizin-7a-yl)methoxy)pyrido[4,3-d]pyrimidin-4-yl)-3-azabicyclo[3,2,1]octan-6-ol]",≤ 2 nM,≤ 2 nM,≤ 2 nM,8 nM,409 nM,14 nM,5 nM,18 nM,21 nM,9 nM,1 nM,≤ 2 nM,≤ 2 nM,≤ 2 nM,≤ 2 nM,–,–,16 nM,16 nM

# Now from value to molecule, other results behind:
IC50 (KRas G12D),IC50 (KRas G12V),IC50 (KRas G12R),IC50 (pERK in MKN1 cells),IC50 (pERK in PSN1 cells),IC50 (pERK in ASPC1 cells),IC50 (pERK in H727 cells),IC50 (pERK in A549 cells),IC50 (pERK in H460 cells),IC50 (pERK in HCT116 cells),IC50 (pERK in H358 cells),IC50 (KRas G12A),IC50 (KRas G12S),IC50 (KRas G12C),IC50 (KRas WT),SMILES,IC50 [1],IC50 [2],IC50 [3],IC50 [4]
≤ 2 nM,≤ 2 nM,≤ 2 nM,3 nM,1350 nM,20 nM,34 nM,63 nM,55 nM,686 nM,4 nM,–,–,–,–,"CCc1c(F)ccc2cc(O)cc(-c3ncc4c(N5CCC[C@]6(CC(=O)N6)C5)nc(OC[C@@]56CCCN5C[C@H](F)C6)nc4c3F)c12 (single isomer, unassigned) [Example 194]",92 nM,7 nM,65 nM,89 nM
≤ 2 nM,≤ 2 nM,3 nM,7 nM,1230 nM,7 nM,90 nM,44 nM,39 nM,91 nM,15 nM,–,–,–,–,CCc1c(F)ccc2cc(O)cc(-c3ncc4c(N5CCCC(O)(C(F)F)C5)nc(OC[C@@]56CCCN5C[C@H](F)C6)nc4c3F)c12 (stereo partly shown) [Example 184],66 nM,–,30 nM,201 nM
≤ 2 nM,≤ 2 nM,≤ 2 nM,14 nM,3930 nM,54 nM,199 nM,–,216 nM,456 nM,46 nM,–,–,–,–,"CCc1c(F)ccc2cc(O)cc(-c3ncc4c(N5CCC[C@@](C)(O)C5)nc(OC[C@@]56CCCN5[C@@H](CO)CC6)nc4c3F)c12 [Example 301, (R)-1-(7-(8-ethyl-7-fluoro-3-hydroxynaphthalen-1-yl)-8-fluoro-2-(((3R,7aS)-3-(hydroxymethyl)tetrahydro-1H-pyrrolizin-7a(5H)-yl)methoxy)pyrido[4,3-d]pyrimidin-4-yl)-3-methylpiperidin-3-ol]",216 nM,15 nM,416 nM,520 nM
